From ChEMBL document CHEMBL3227967, “Quantitative structure-activity relationships in 1-aryl-2-(alkylamino)ethanol antimalarials” (J Med Chem, 1979)

Test system: Plasmodium berghei
Assay: Antimalarial activity against Plasmodium berghei
Assay type: functional

Compound | log(1/C)
CCCCN(CCCC)CC(O)c1cc2ccc(C(C)(C)C)cc2c2cc(C(C)(C)C)ccc12 (stereo unspecified) | 3.19
CCCCN(CCCC)CC(O)c1cc(-c2ccc(I)cc2)nc2ccc(I)cc12 (stereo unspecified) | 4.22
CCCCN(CCCC)CC(O)c1cc(Cc2ccccc2)nc2c(Cl)cccc12 (stereo unspecified) | 2.3
CCCCN(CCCC)CC(O)c1cc2c(Cl)cc(Cl)cc2c2cc(Cl)sc12 (stereo unspecified) | 3.53
CCCCNCC(O)c1cc(-c2ccc(C(F)(F)F)cc2)nc(-c2ccc(C(F)(F)F)cc2)c1 (stereo unspecified) | 4.16
CCCCCCCN(CCCCCCC)CC(O)c1c2ccccc2c(Cl)c2ccccc12 (stereo unspecified) | 3.7
CCCCN(CCCC)CC(O)c1cc2c(Cl)cccc2c2ccccc12 (stereo unspecified) | 2.65
CCCCCCCN(CCCCCCC)CC(O)c1cc(-c2ccc(Cl)cc2)nc2c(C(F)(F)F)cccc12 (stereo unspecified) | 3.13
CCCCN(CCCC)CC(O)c1cccc2c1cc(Br)c1ccccc12 (stereo unspecified) | 2.15
CCCCN(CCCC)CC(O)c1cc(-c2ccc(Cl)cc2)nc2ccccc12 (stereo unspecified) | 2.73
CCCCN(CCCC)CC(O)c1cc2ccc(Br)cc2c2ccsc12 (stereo unspecified) | 2.57
CCCCNCC(O)c1cc(C(F)(F)F)nc2c(C(F)(F)F)cccc12 (stereo unspecified) | 3.65
COc1cc(C(F)(F)F)c2nc(C(F)(F)F)cc(C(O)CC3CCCCN3)c2c1 (stereo unspecified) | 3.98
OC(CC1CCCCN1)c1cc2cc(Br)c(Br)cc2c2cc(C(F)(F)F)ccc12 (stereo unspecified) | 3.58
CCCCCN(CCCCC)CC(O)c1cc2cc(Cl)ccc2c2cc(Cl)ccc12 (stereo unspecified) | 4.01
OC(CC1CCCCN1)c1cc2ccc(C(F)(F)F)cc2c2cc(Br)ccc12 (stereo unspecified) | 3.86
OC(CC1CCCCN1)c1cc2ccc(Cl)c(Cl)c2c2cc(C(F)(F)F)ccc12 (stereo unspecified) | 4.4
OC(CC1CCCCN1)c1cc2ccccc2c2cc(C(F)(F)F)ccc12 (stereo unspecified) | 3.37
CCCCN(CCCC)CC(O)c1cc2ccsc2c2cc(C(F)(F)F)ccc12 (stereo unspecified) | 3.5
CCN(CC)CC(O)c1cc(Cl)cc2ccc(-c3ccc(Cl)cc3)nc12 (stereo unspecified) | 2.12
CCCCN(CCCC)CC(O)c1cc(-c2ccc(C(F)(F)F)cc2)nc(-c2ccc(C(F)(F)F)cc2)c1 (stereo unspecified) | 4.09
CCCCN(CCCC)CC(O)c1cc(Oc2ccc(Cl)cc2)cc2c(Cl)cc(Cl)cc12 (stereo unspecified) | 2.57
CCCCN(CCCC)CC(O)/C(=C/c1ccc(C(F)(F)F)cc1)c1ccc(C(F)(F)F)cc1 (stereo unspecified) | 3.22
CCCCCCN(CCCCCC)CC(O)c1cc(-c2ccc(OC)cc2)nc2cc(Cl)c(Cl)cc12 (stereo unspecified) | 3.35
Cc1ccc(-c2cc(C(O)CC3CCCCN3)c3cccc(C(F)(F)F)c3n2)cc1 (stereo unspecified) | 3.94
COc1ccc(-c2cc(C(O)CC3CCCCN3)c3ccccc3n2)cc1 (stereo unspecified) | 2.53

Compound | log(1/C)
CCCCN(CCCC)CC(O)c1cccc2ccc3cccc(Cl)c3c12 (stereo unspecified) | 2.3
CCN(CC)CC(O)c1cc(-c2cccs2)nc2cccc(Br)c12 (stereo unspecified) | 2.38
CCCCCCN(CCCCCC)CC(O)c1cc(-c2ccc(Cl)cc2)nc2c(Cl)cccc12 (stereo unspecified) | 3.32
CCCC(CCC)NCC(O)c1cc(-c2ccc(Cl)cc2)nc(-c2ccc(Cl)cc2)c1 (stereo unspecified) | 4.13
CCCCN(CCCC)CC(O)c1cc(Cl)cc2c1-c1ccc(Cl)cc1C2 (stereo unspecified) | 3.97
CCCCCCCN(CCCCCCC)CC(O)c1cc2c(Cl)cc(Cl)cc2c2ncccc12 (stereo unspecified) | 2.86
Cc1cc(C)cc(-c2cc(C(O)CC3CCCCN3)c3ccccc3n2)c1 (stereo unspecified) | 2.24
NC(=O)c1cc(C(O)CC2CCCCN2)c2cccc(C(F)(F)F)c2n1 (stereo unspecified) | 2.42
OC(CC1CCCCN1)c1cc(-c2ccc(C(F)(F)F)cc2)nc(C(F)(F)F)c1 (stereo unspecified) | 4.32
CCCCN(CCCC)CC(O)c1cc2ccc(C(F)(F)F)cc2c2cc(C(F)(F)F)ccc12 (stereo unspecified) | 4.1
CCCCCCCN(CCCCCCC)CC(O)c1cc2ccc(F)cc2c2ccccc12 (stereo unspecified) | 2.32
OC(CC1CCCCN1)c1cc2cc(Cl)c(Cl)cc2c2cc(C(F)(F)F)ccc12 (stereo unspecified) | 4.19
CCN(CC)CC(O)c1cc(-c2ccc(Br)cc2)nc(-c2ccc(Br)cc2)c1 (stereo unspecified) | 3.13
OC(CC1CCCCN1)c1cc(-c2ccc(Cl)cc2)nc2c(Cl)cc(Cl)cc12 (stereo unspecified) | 3.97
CCCCN(CCCC)CC(O)c1cc(-c2cccs2)nc2cccc(Br)c12 (stereo unspecified) | 3.06
CCCCCCCN(CCCCCCC)CC(O)c1cc(-c2ccc(Cl)cc2)cc2ccc(OC)cc12 (stereo unspecified) | 4.18
CCCCCCC[N+]([O-])(CCCCCCC)CC(O)c1cc2ccccc2c2cc(Br)ccc12 (stereo unspecified) | 3.43
CCCCCCCCN(CCCCCCCC)CC(O)c1cc(-c2ccc(CC)c(CC)c2)cc2ccc(C)cc12 (stereo unspecified) | 3.15
CCCCN(CCCC)CC(O)c1cc(-c2ccc(C(F)(F)F)cc2)nc2c(Cl)cc(Cl)cc12 (stereo unspecified) | 4.04
COc1ccc2nc(C(F)(F)F)cc(C(O)CC3CCCCN3)c2c1 (stereo unspecified) | 2.97
CCCCCCCN(CCCCCCC)CC(O)c1cccc2cc3ccccc3cc12 (stereo unspecified) | 2.99
CCCCN(CCCC)CC(O)c1ccnc2cc(C(F)(F)F)ccc12 (stereo unspecified) | 2.51
CCCCN(CCCC)CC(O)c1cc(Oc2ccc(Cl)cc2)c(Br)c2cc(Cl)ccc12 (stereo unspecified) | 2.62
CCCCCCN(CCCCCC)CC(O)c1cc(-c2ccc(Cl)cc2)nc2c(C)cc(C)cc12 (stereo unspecified) | 3.75
CCCCN(CCCC)CC(O)c1cc2cc(Br)c(Br)cc2c2cc(Br)ccc12 (stereo unspecified) | 3.97
CCN(CC)CC(O)c1cc(-c2ccc(C)cc2)nc2c(C)cc(C)cc12 (stereo unspecified) | 2.8

Compound | log(1/C)
CCCCN(CCCC)CC(O)c1cc(-c2ccccc2)nc(-c2ccccc2)c1 (stereo unspecified) | 2.51
CCCCCCCCN(CCCCCCCC)CC(O)c1cc(-c2ccccc2)nc2cc(Cl)ccc12 (stereo unspecified) | 2.82
OC(CNC1CCCCC1)c1cc2ccccc2c2cc(OC(F)(F)F)ccc12 (stereo unspecified) | 3.34
OC(CC1CCCCN1)c1cc2ccc(Cl)cc2c2cc(Cl)c(Cl)cc12 (stereo unspecified) | 3.86
COc1cc2c(C(O)CC3CCCCN3)cc(-c3ccc(Cl)c(Cl)c3)cc2cc1Cl (stereo unspecified) | 3.14
CCCNCC(O)c1cc(-c2ccc(C(F)(F)F)cc2)nc(-c2ccc(C(F)(F)F)cc2)c1 (stereo unspecified) | 4.03
OC(CC1CCCCN1)c1cc2cc(Cl)ccc2c2cc(Cl)ccc12 (stereo unspecified) | 4.12
OC(CC1CCCCN1)c1cc2ccc(Br)cc2c2cc(C(F)(F)F)ccc12 (stereo unspecified) | 3.7
CCCCN(CCCC)CC(O)C1CC(c2ccc(Cl)c(Cl)c2)=Nc2c(Cl)cc(Cl)cc21 (stereo unspecified) | 3.6
CCCCCCN(CCCCCC)CC(O)c1cccc2ccc3cccc(Br)c3c12 (stereo unspecified) | 2.39
CCCCN(CCCC)CC(O)c1cc2cc(Cl)ccc2c2cc(C(F)(F)F)ccc12 (stereo unspecified) | 3.69
CCCCN(CCCC)CC(O)c1cc2c(Cl)cc(Cl)cc2c2cc(Cl)ccc12 (stereo unspecified) | 3.72
Cc1ccc(-c2cc(C(O)CC3CCCCN3)c3cc(C)cc(C)c3n2)cc1 (stereo unspecified) | 3.11
CCCCCCCN(CCCCCCC)CC(O)c1c(OC)c2cc(Br)ccc2c2ccc(Br)cc12 (stereo unspecified) | 3.35
CCCCN(CCCC)CC(O)c1cc(-c2ccc(C(F)(F)F)cc2)nc(C(F)(F)F)c1 (stereo unspecified) | 4.13
CCCCN(CCCC)CC(O)c1cc2c(Cl)cc(Cl)cc2c2ccsc12 (stereo unspecified) | 3.2
OC(CC1CCCCN1)c1c2c(nc3c(Cl)cc(Cl)cc13)-c1ccc(Cl)cc1CC2 (stereo unspecified) | 3.69
OC(CC1CCCCN1)c1cc2ccccc2c2c(C(F)(F)F)cccc12 (stereo unspecified) | 3.73
CCCCN(CCCC)CC(O)c1cc2cc(Br)ccc2c2cc(Br)ccc12 (stereo unspecified) | 4.17
CCCCN(CCCC)CC(O)c1cc2ccc(C(F)(F)F)cc2c2cc(Cl)sc12 (stereo unspecified) | 3.84
OC(CC1CCCCN1)c1cc(-c2ccc(F)cc2)nc2cc(F)ccc12 (stereo unspecified) | 2.32
CCCCN(CCCC)CC(O)c1cc2ccc(Br)cc2c2cc(Br)ccc12 (stereo unspecified) | 3.63
CCCCNCC(O)c1cc(-c2ccc(Cl)cc2)cc2cc(Cl)ccc12 (stereo unspecified) | 3.29
OC(CC1CCCCN1)c1cc2ccc(Cl)cc2c2cc(C(F)(F)F)ccc12 (stereo unspecified) | 4.09
CCCCN(CCCC)CC(O)c1cc(-c2ccc(O)cc2)nc2c(Cl)cc(Cl)cc12 (stereo unspecified) | 2.66
OC(CNC1CCCC1)c1cc(-c2ccc(Cl)cc2)nc2c(Cl)cc(Cl)cc12 (stereo unspecified) | 3.53

Compound | log(1/C)
CCCCN(CCCC)CC(O)c1cc2ccc(Br)cc2c2cc(Cl)sc12 (stereo unspecified) | 3.43
OC(CC1CCCCN1)c1cc2cc(C(F)(F)F)ccc2c2cc(C(F)(F)F)ccc12 (stereo unspecified) | 3.85
OC(CC1CCCCN1)c1cc(C(F)(F)F)nc2ccc(Cl)cc12 (stereo unspecified) | 2.53
CCCN(CCC)CC(O)c1cc2ccc(C(F)(F)F)cc2c2ccsc12 (stereo unspecified) | 2.82
C=C[C@H]1CN2CC[C@H]1C[C@H]2[C@H](O)c1ccnc2ccc(OC)cc12 [QUININE] | 2.06
CCCCCN(CCCCC)CC(O)c1cc(-c2ccccc2)nc2ccccc12 (stereo unspecified) | 2.57
CCCCN(CCCC)CC(O)c1cc2ccncc2c2c(Cl)cc(Cl)cc12 (stereo unspecified) | 2.57
CCCCCCCN(CCCCCCC)CC(O)c1cc(-c2ccc(Cl)cc2)nc(-c2ccc(Cl)cc2)c1 (stereo unspecified) | 2.67
CCCCN(CCCC)CC(O)c1cc2cc(Cl)c(Cl)cc2c2cc(Cl)c(Cl)cc12 (stereo unspecified) | 4.18
CCCCCCCN(CCCCCCC)CC(O)c1cccc2c1cc(Cl)c1ccccc12 (stereo unspecified) | 2.5
CCCCN(CCCC)CC(O)c1c(C)cnc2c1ccc1ccccc12 (stereo unspecified) | 2.15
CCCCN(CCCC)CC(O)c1cc2ccc(C(F)(F)F)cc2c2cc(C)sc12 (stereo unspecified) | 2.52
CCCCCCCN(CCCCCCC)CC(O)c1cccc2cc3cccc(Cl)c3cc12 (stereo unspecified) | 2.36
CCCN(CCC)CC(O)c1cc2cc(Br)cc(Br)c2c2cc(C(F)(F)F)ccc12 (stereo unspecified) | 4.24
CCCCN(CCCC)CC(O)c1cc(OCC)nc2ccccc12 (stereo unspecified) | 2.24
CCCCN(CCCC)CCC(O)c1cc2ccccc2c2ccccc12 (stereo unspecified) | 2.45
CCCCN(C)CC(O)c1cc(-c2ccc(Cl)cc2)nc(-c2ccc(Cl)cc2)c1 (stereo unspecified) | 3.59
CCCCCCCN(CCCCCCC)CC(O)c1cc(-c2ccc(Cl)c(Cl)c2)cc2cc(Cl)ccc12 (stereo unspecified) | 2.6
CCN(CC)CC(O)c1cc(-c2ccc(Cl)c(Cl)c2)nc2cc(OC)ccc12 (stereo unspecified) | 3.32
CCCCCCCN(CCCCCCC)CC(O)c1cc2ccccc2c2ncccc12 (stereo unspecified) | 2.25
CN1CCCCC1CC(O)c1cc(-c2ccccc2)nc2ccc(Cl)cc12 (stereo unspecified) | 2.7
CCCCN(CCCC)CC(O)c1cc(C(F)(F)F)nc2c(C(F)(F)F)cccc12 (stereo unspecified) | 3.6
CCCCN(CCCC)CC(O)c1cc(-c2ccc(Cl)c(Cl)c2)cc2cc(Cl)ccc12 (stereo unspecified) | 4.81
